Experimental data reported in US7662782B2, “Melanocortin 1 receptor selective compounds” (Action Pharma A/S, priority 1998, dated 2010).
Square brackets hold non-standard residues; d marks the D form. Ends that are not written are not given here. Peptide text beside a SMILES is read from it.

Key:
human MC3-receptor = target: T1, human MC3-receptor (Homo sapiens, UniProt P41968); test: Competition for [125I]NDP-MSH binding to recombinant human MC3-receptor in COS cells; settings: for Ki: [125I]NDP-MSH competition, transfected COS cells
T1 construct: expressed in transfected cells; host or cells: COS (COS-1) cells, transient, 48 h
Method: (§1) Expression of receptor clones. Human MC1- and MC5-receptor DNAs (Chhajlani and Wikberg 1992; Chhajlani et al., 1993), cloned into the expression vector pRc/CMV (InVitrogen Corp., USA), and human MC3- and human MC4-receptor DNAs (Gantz et al., 1993a & b), cloned into the expression vector pCMV/neo, were used. COS cells were grown and transfected with receptor clones as described (Schiöbth et al. 1995, 1996b). After transfection cells were cultivated for 48 h, detached from the Petri dishes, and used for radioligand binding as described (Schiöth et al. 1995, 1996b).
(§2) Binding studies. […] The competition data were analyzed by fitting it to the logistic function using non-linear regression analysis. The Ki-values were then calculated from the thus obtained IC50-values by using the Cheng and Prusoff equation, essentially as described by Schiöth et al. 1995, 1996b.

human MC4-receptor = target: T2, human MC4-receptor (Homo sapiens, UniProt P32245); test: Competition for [125I]NDP-MSH binding to recombinant human MC4-receptor in COS cells; settings: for Ki: [125I]NDP-MSH competition, transfected COS cells
T2 construct: expressed in transfected cells; host or cells: COS (COS-1) cells, transient, 48 h
Method: as §1, §2

human MC5-receptor = target: T3, human MC5-receptor (Homo sapiens, UniProt P33032); test: Competition for [125I]NDP-MSH binding to recombinant human MC5-receptor in COS cells; settings: for Ki: [125I]NDP-MSH competition, transfected COS cells
T3 construct: expressed in transfected cells; host or cells: COS (COS-1) cells, transient, 48 h
Method: as §1, §2

human MC1-receptor [1] = target: T4, human MC1-receptor (Homo sapiens, UniProt Q01726); test: Stimulation of cAMP formation in B16G4F cells stably expressing human MC1-receptors; assay type: cell-based; parameters: expressed in transfected cells; settings: for Fold stimulation of cAMP: vs untreated control cells, mean ± SD of 3 experiments
Method: Human MC1-receptors had been cloned earlier into pZeoSV (Invitrogen) (Szardenings et al., 1997). The resulting vectors were used for transformation of the amelanotic mouse melanoma cell line B16G4F that lacks the mouse MC1-receptors (Solca et al., 1993) using liposomes (Campbell, 1995) as described previously (Schiöth et al., 1997b). Cells were cultivated in Dulbecco's modified Eagle's medium with 10% fetal calf serum at 7% CO2 for 24 hours and seeded on large plates in the same medium containing 300 μg/ml Zeocin. The medium was exchanged every 4-5 days until cell foci appeared. Single foci were isolated and grown under antibiotic selection.
For cAMP measurements the cells were detached from 60-80% confluent adherent cultures using Hank's balanced salts containing 0.5 mM EDTA and incubated for 30-60 min at 37° C. in ordinary growth medium containing 0.5 mM of the phosphodiesterase inhibitor 3-isobutyl-1-methyl-xanthine (IBMX). 20 μl aliquots of appropriate dilutions of test compounds in growth medium were prepared in 96 well microtitre plates and placed in a water bath at 37° C. For the stimulation about 1.5×10^5 cells in 180 μl were quickly added to each well to obtain immediate mixing. After 20 min 20 μl of 4.4 M perchloric acid were added, mixed, neutralized after a few minutes by addition of 20 μl base (5 M KOH, 1 M Tris) and centrifuged.
20 μl of acid treated supernatant obtained above were mixed with 50 μl buffer (100 mM Tris-Cl, 250 mM NaCl, 10 mM EDTA, 0.1% mercaptoethanol, 0.5 mM IBMX, pH=7.4) containing 0.01 μCi [^3H]cAMP (Amersham, 1.04 TBq/mmol, 1 μCi/μl, product no.: TRK304). 200 μl of the same buffer containing a 1:16 diluted porcine adrenal gland bark extract (prepared as described by Nordstedt and Fredholm, 1990) were added and the microtitre plates were incubated for at least 2 hours at 4° C. A standard curve was prepared in the same manner with dilutions of cAMP covering the range 2 μM -0.5 nM.
After completion of incubation the solutions were filtered over GF-B glassfibre filters (Whatman) and washed briefly with ca. 2 ml ice-cold washing buffer (50 mM Tris-Cl, pH=7.4). Radioactivity on the filters was measured after-addition of scintillation liquid. Stimulation experiments were determined in quadruplicates and standard curves in duplicates.

human MC1-receptor [2] = target: T4, human MC1-receptor; test: Competition for [125I]NDP-MSH binding to recombinant human MC1-receptor in COS cells; parameters: expressed in transfected cells; host or cells: COS (COS-1) cells, transient, 48 h; settings: [125I]NDP-MSH competition, transfected COS cells
Method: as §1, §2

mouse B16 melanoma cells = test: Stimulation of cAMP-formation in mouse B16 melanoma cells; assay type: cell-based; settings: FIG. 3; both peptides at similar potencies and efficacies
Method: B16 mouse melanoma cells (B16-F1; CRL-6323, American Type Culture Collection, 12301 Parklawn Drive, Rockville, Md., 20852), were cultured in Dulbecco's modified Eagle medium (DMEM; Gibco BRA Gaithersburg, USA, cat no. 041-01966H) supplemented with 10% heat-inactivated fetal bovine serum, 100 IU penicillin/mL and 100 μg streptomycin/mL at 37° C. in a humidified atmosphere of 95% air and 5% CO2. Cells grown in monolayers were detached from 60-80% confluent adherent cultures using Hank's balanced salts containing 0.5 mM EDTA and collected by low speed centrifugation (700×g).
The cells were incubated for 30 min at 37° C. in DMEM containing 0.5 mM of the phosphodiesterase inhibitor 3-isobutyl-1-methyl-xanthine (IBMX). 20 μL aliquots of appropriate dilutions of test compounds in growth medium were prepared in 96 well microtitre plates The plates were then placed in a water bath at 37° C. and about 1.5×10^5 cells in 180 μL were quickly added to each well to obtain immediate mixing. […]
After completion of the incubations the solutions were rapidly filtered onto GF-B glassfibre filters (Whatman), followed by rapid washing of filters with 2 ml ice-cold washing buffer (50 mM Tris-Cl, pH 7.4). […] Radioactivity was counted using a β-counter. Cell experiments were determined in quadruplicates and standard curves in duplicates.

[3] = test system: mouse RAW 264.7 macrophage cells; test: Stimulation of cAMP-formation in mouse RAW 264.7 macrophage cells; assay type: cell-based; settings: FIG. 5; both peptides at similar potencies and efficacies
Method: RAW 264.7 cells were grown as described in Example 6. cAMP was determined essentially as described in Example 5.

[4] = test system: mouse RAW 264.7 macrophage cells; test: Inhibition of nitric oxide production in LPS/interferon gamma stimulated RAW 264.7 cells; assay type: cell-based; settings: FIG. 6; 100 ng/mL LPS + 5 units/mL interferon gamma, 16 h; potencies and efficacies similar to α-MSH
Method: RAW 264.7 cells (TIB-71), obtained from American Type Culture Collection, 12301 Parklawn Drive, Rockville, Md., 20852, USA, and cultured in Dulbecco's modified Eagle medium (Gibco, BRL) supplemented with 10% heat-inactivated fetal bovine serum, 100 IU penicillin/ml and 100 μg streptomycin/ml at 37° C. in a humidified atmosphere of 95% air and 5% CO2. Cells grown in monolayers were detached from the culture flasks and collected by low speed centrifugation (700×g). […]
Nitric oxide was measured by monitoring the nitrite production essentially using the method of Wishnok et al. (Methods in Enzymology, 1996, 268, 130-151). In brief 50 μL of culture medium was mixed with 50 μL Griess reagent (i.e. a 1:1 mixture of 0.1% N-naphthylethylenediamine dihydrochloride and 1% sulfanilamide in 5% (v/v) phosphoric acid) and after 10 min the absorption was measured at 540 nm. The nitrite concentrations were calculated from a standard curve constructed, by instead of culture medium, adding 50 μL of between 3 to 100 μM of NaNO2 to the assays.

BALB/C mice = test: DNFB contact hypersensitivity in BALB/C mice (paw oedema, blood cell counts); assay type: in vivo, mouse; settings: for inhibition of paw oedema: daily, vs DNFB animals not given MS05
Method: Marked positive treatment effects were found upon administration of MS05 to BALB/C mice. Animals were sensitized by injection of 2,4-dinitrofluorobenzene (DNFB). First 30 μL of 0.5% DNFB was administered to the shaved abdomen of the mice and after 4 days 10 μL of 0.3% DNFB was challenged to one paw, another paw being unchallenged and serving as a control. MS05 was administered, using a solution of MS05 in 0.9% saline, intraperitonally two hours before sensitization, and then the same dose was given intra-peritonally for four consecutive days, each dose of MS05 amounting to 0.05, 0.25, 0.37, 0.5 and 0.75 mg/kg. […] Therefore the compound of the invention is in a further sense immunomodulatory.

[5] = test system: human microvascular endothelial cells (HMEC-1 cells); test: TNF α induced adhesion molecule expression in HMEC-1 cells; assay type: cell-based; settings: TNF α 10 ng/mL
Method: In further tests the MS05 or MS09 was administered to human microvascular endothelial cells (HMEC-1 cells; Department of Health & Human Services, Centres for Disease Control and Prevention, Atlanta, Ga. 30333, USA) in vitro. […] In this context by ICAM-1 is intended intercellular adhesion molecule type 1, by VCAM is intended vascular adhesion molecule, and by E-Selectin is intended endothelial selectin (Sluiter et al, J. Cardiovasc. Pharmacol. 1993, 22 Suppl 4: S37-44, Elangbam et al., Vet. Pathol. 1997 Jan. 34(1): 61-73).

[6] = intraperitoneal, best effect at 0.5 mg/kg daily

T1 sequence (P41968 whole entry): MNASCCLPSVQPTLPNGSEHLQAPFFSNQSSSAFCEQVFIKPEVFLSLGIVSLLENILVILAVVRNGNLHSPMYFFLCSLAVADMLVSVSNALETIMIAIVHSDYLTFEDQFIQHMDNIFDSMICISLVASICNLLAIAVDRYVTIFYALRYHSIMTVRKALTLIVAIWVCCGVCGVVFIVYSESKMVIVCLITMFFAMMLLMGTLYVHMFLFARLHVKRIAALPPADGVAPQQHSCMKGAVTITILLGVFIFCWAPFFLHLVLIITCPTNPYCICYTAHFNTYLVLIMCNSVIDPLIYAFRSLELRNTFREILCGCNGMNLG
T3 sequence (P33032 whole entry): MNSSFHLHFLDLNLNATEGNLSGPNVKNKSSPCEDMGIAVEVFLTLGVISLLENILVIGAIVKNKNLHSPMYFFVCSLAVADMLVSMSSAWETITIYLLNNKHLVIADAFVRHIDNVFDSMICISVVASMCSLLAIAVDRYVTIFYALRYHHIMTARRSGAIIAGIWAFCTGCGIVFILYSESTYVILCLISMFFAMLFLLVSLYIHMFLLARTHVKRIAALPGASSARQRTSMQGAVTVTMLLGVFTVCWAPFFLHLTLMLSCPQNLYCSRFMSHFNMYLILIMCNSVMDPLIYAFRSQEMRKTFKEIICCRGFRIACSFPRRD
T4 sequence (Q01726 whole entry): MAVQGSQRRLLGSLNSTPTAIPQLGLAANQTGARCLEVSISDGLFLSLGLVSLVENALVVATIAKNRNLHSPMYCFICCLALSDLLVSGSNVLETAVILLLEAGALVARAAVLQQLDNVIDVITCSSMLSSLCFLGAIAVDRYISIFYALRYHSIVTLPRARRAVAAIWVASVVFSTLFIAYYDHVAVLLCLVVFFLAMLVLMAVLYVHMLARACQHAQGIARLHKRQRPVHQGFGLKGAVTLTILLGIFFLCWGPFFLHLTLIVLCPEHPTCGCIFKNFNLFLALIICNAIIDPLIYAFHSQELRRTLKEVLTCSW
T2 sequence (P32245 whole entry): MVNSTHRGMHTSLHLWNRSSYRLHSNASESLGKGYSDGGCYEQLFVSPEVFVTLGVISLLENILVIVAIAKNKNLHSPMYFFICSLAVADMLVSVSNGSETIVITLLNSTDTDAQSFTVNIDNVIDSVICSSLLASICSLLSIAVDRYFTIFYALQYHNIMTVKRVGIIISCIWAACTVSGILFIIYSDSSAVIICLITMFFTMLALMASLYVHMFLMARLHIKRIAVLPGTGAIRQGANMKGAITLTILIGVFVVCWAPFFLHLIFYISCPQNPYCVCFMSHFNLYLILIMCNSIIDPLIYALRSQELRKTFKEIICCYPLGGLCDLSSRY

## CC[C@H](C)[C@H](NC(=O)[C@H](CO)NC(=O)[C@@H](N)CO)C(=O)N[C@H](C(=O)N[C@@H](CO)C(=O)N[C@@H](Cc1c[nH]cn1)C(=O)N[C@H](Cc1ccccc1)C(=O)N[C@@H](CCCNC(=N)N)C(=O)N[C@@H](Cc1c[nH]c2ccccc12)C(=O)NCC(=O)N[C@@H](CCCCN)C(=O)N1CCC[C@H]1C(=O)N[C@H](C(N)=O)C(C)C)[C@@H](C)CC [MS09, Ser-Ser-Ile-Ile-Ser-His-dPhe-Arg-Trp-Gly-Lys-Pro-Val-NH2] (H-SSIISH[dF]RWGKPV-NH2)
Human MC3-receptor
  Ki: 7 nM
Human MC4-receptor
  Ki: 40 nM
Human MC5-receptor
  Ki: 120 nM
Human MC1-receptor [1]; 10 nM compound
  % of 10 nM α-MSH (cAMP stimulation): 89%
Human MC1-receptor [2]
  Ki: 0.2 nM

## SSIISHFRWGKPV-NH2 [MS05, L-seryl-L-seryl-L-Isoleucyl-L-isoleucyl-L-seryl -L-histidyl-L-phenylalanyl-L-arginyl-L-tryptophanyl-glycyl-L-lysyl-L-prolyl-L-valinamide]
Human MC3-receptor
  Ki: 1360 nM
Human MC3-receptor; ratio of Ki values
  fold lower affinity for the MC3 receptor than for the MC1-receptor: 1800 fold
Human MC4-receptor
  Ki: > 50000 nM
Human MC4-receptor; ratio of Ki values
  fold lower affinity for the MC4 receptor than for the MC1-receptor: more than 65000 fold
Human MC5-receptor
  Ki: > 50000 nM
Human MC5-receptor; ratio of Ki values
  fold lower affinity for the MC5 receptor than for the MC1-receptor: more than 65000 fold
Mouse B16 melanoma cells
  effect on cAMP levels in mouse B16 melanoma cells: marked increase in cAMP
[3]
  effect on cAMP levels in mouse RAW 264.7 cells: marked increase in cAMP
[4]
  inhibition of NO-production: strong dose dependent inhibition
BALB/C mice; 0.05 mg/kg intraperitoneal
  inhibition of paw oedema: 3%
BALB/C mice; 0.25 mg/kg intraperitoneal
  inhibition of paw oedema: 5%
BALB/C mice; 0.37 mg/kg intraperitoneal
  inhibition of paw oedema: 12%
BALB/C mice; 0.5 mg/kg intraperitoneal
  inhibition of paw oedema: 39%
BALB/C mice; 0.75 mg/kg intraperitoneal
  inhibition of paw oedema: 10%
BALB/C mice; intraperitoneal
  DNFB induced increase in blood platelet counts: returned towards the normal
  DNFB induced increase in count of lymphocytes/monocytes in the blood: essentially returned to normal levels
BALB/C mice; [6]
  DNFB induced increase in granulocyte counts of the blood: essentially normalized
  DNFB induced increase in total white cell blood counts: essentially normalized
[5]
  TNF α upregulated expression of mRNA for ICAM-1, VCAM and E-Selectin: inhibition of the upregulated expression of mRNA
  TNF α upregulation of the ICAM-1, VCAM and E-Selectin proteins: inhibition of the upregulation
Human MC1-receptor [1]; 10 nM compound
  % of 10 nM α-MSH (cAMP stimulation): 69%
  Fold stimulation of cAMP: 4.6 ± 0.3 fold
Human MC1-receptor [1]; 1 μM compound
  Fold stimulation of cAMP: 6.7 ± 0.3 fold
Human MC1-receptor [2]
  Ki: 0.76 nM
